Data: patent US6451325B1, “Adjuvant formulation comprising a submicron oil droplet emulsion” (Chiron Corporation, priority 1989, dated 2002)

Tested on: influenza HA (Parke-Davis FLUOGEN)
Parameters: species or system Goats
Conditions: in vivo

SMILES: CCCCCCCCCCCCCCCC(=O)OC[C@H](COP(=O)(O)OCCNC(=O)[C@H](C)NC(=O)CC[C@@H](NC(=O)[C@H](C)NC(=O)[C@@H](C)O[C@H]1[C@H](O)[C@@H](CO)OC(O)[C@@H]1NC(C)=O)C(N)=O)OC(=O)CCCCCCCCCCCCCCC (stereo partly drawn) [MTP-PE in PBS, N-acetylmuramyl-L-alanyl-D-isoglutaminyl-L-alanine-2-[1,2-dipalmitoyl-sn-glycero-3-(hydroxyphosphoryloxy)]ethylamide]
- stimulation of antibody titer after one immunization: no stimulation of antibody titer
